Laboratory results as given in patent publication US7419984B2, “Pyrimidines and uses thereof” (Cell Therapeutics, Inc., priority 2002, dated 2008).

Molecular target: T1, human LPAAT-β (Homo sapiens, UniProt O15120)
T1 construct: the full-length human LPAAT-β cDNA was amplified by PCR; poly-histidine tag (N); made in house; host or cells: Sf9 insect cells (baculovirus, pFastBac HTc); the membrane fraction was used as the enzyme
T1 sequence (O15120 24-278): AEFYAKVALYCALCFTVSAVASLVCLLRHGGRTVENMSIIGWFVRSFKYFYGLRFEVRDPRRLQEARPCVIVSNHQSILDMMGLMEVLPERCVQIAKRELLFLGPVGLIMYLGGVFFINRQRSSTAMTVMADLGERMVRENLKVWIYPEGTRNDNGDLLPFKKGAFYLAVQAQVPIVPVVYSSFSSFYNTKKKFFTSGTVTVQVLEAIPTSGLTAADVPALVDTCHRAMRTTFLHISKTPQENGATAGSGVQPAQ
Experiment: LPAAT-β cell-free assay
Assay type: biochemical
Settings: Sf9 cell membrane overexpressing recombinant LPAAT-β
Excerpt: For the construction of Baculovirus expression vectors, the full-length human LPAAT-β cDNA was amplified by PCR from the DNA template pCE9.LPAAT-β (West et al., DNA Cell Bid. 16.691-701 (1997)) using the primers 5′-[…] […] […] […]-3′ (olpb1F; SEQ ID NO:1) and 5′-[…] […] […]-3′ (olpb1R; SEQ ID NO:2). The ˜870 bp fragment generated was reamplified by PCR using the primers 5′ […] […] […] […] ATC-3′ (olpb2F; SEQ ID NO:3) and 5′-[…] […] […]-3′ (olpb1R; SEQ ID NO:2). The ˜890 bp fragment generated was then cleaved with Sal I and Xba I for insertion into pFastBac™ HTc vector (Life Technologies, Gaithersberg, M.d.) between the Sal I and Xba I sites for the generation of the plasmid pFB.LPAAT-β. This plasmid was then transformed into E. coli DH10Bac™ (Life Technologies, Gaithersberg, M.d.) for the generation of recombinant Bacmid DNA for transfection in HighFive (Invitrogen, San Diego, Calif.) or SF9 insect cells for the production of recombinant Baculovirus stocks using the protocol described in the Bac-to-Bac® Baculovirus Expression System (Life Technologies, Gaithersberg, M.d.), a eukaryotic expression system for generating recombinant baculovirus through site-specific transposition in E. coli. Viral stocks harvested from the transfected cells can then be used to infect fresh insect cells for the subsequence expression of LPAAT-β fusion protein with a poly-histidine tag and a myc-epitope near its N-terminus. The membrane fraction from these Sf9 cells would be the source of LPAAT enzyme.
For the preparation of membranes from Sf9 Cells, all steps are performed on ice or at 4° C. Sf9 cell pellets (˜10^8 cells) were thawed and resuspended in 1-2 ml of buffer A (20 mM Hepes, pH 7.5, 1 mM DTT, 1 mM EDTA, 20% w/v glycerol, 1 mM Benzamidine, 1 μg/ml soybean trypsin inhibitor (SBTI), 1 μug/ml pepstatin A) w/o DTT but with 1 mM Pefabloc. The cells were lysed by sonication using a Branson Sonifier at output=2, duty cycle=2, 10 pulses each at 10 s. with the tip of small sonicator probe submerged but not touching the walls. DTT was then added to 1 mM from a 1 M stock. The samples were centrifuged at 1500 rpm for 5 min. The low speed supernatant was saved and centrifuged (TLA 100.3 rotor, polycarbonate tubes, 2 ml/tube or 1.5 ml/tube minimum) at 100000×g for 1 hr. The high speed pellet was resuspend in Buffer A with a probe sonicator (10 pulses @ output #2 and duty cycle 20%) as a source of LPAAT enzyme.
LPAAT-β catalyzes the transfer of an acyl group from a donor such as acyl-CoA to LPA. The transfer of the acyl group from acyl-CoA to LPA leads to the release of free CoA, which can be reacted with the thiol reagent, 5,5′-dithiobis(2-nitrobenzoic acid) (DTNB). The reaction between DTNB and the free sulfhydryl group from CoA generates a yellow-colored product, 3-carboxylato-4-nitrothiophenolate (CNP), that absorbs at 413 nm. LPAAT-β derived from Sf9 cell membrane overexpressing LPAAT-β were resuspended in HEPES saline buffer (20 mM HEPES pH 7.5, 150 mM NaCl), 1 mg/ml BSA and 72 μl aliquots were distributed into 96-well microtiter plates. 8 μl of compound of interest at 200 μM dissolved in 100% DMSO was added into each well. […] of 1 mM 18:1-CoA and 1 mM sn-1-18:1 lysoPA was then added to each well to initiate the reaction and allowed to run at room temperature for 25 min. 100 μl of 1 mM DTNB in 100% ethanol was then added to each well to quench the reaction and for color development. The absorbance at 405 nm, measured using a spectrophotometer plate reader, is proportional to the activity of LPAAT-2 in the sample. This colorimetric assay was used for the high throughput screening of LPAAT inhibitors.
The radiometric assay was carried out in Sf9 cell membrane overexpressing LPAAT-β resuspended in HEPES-saline buffer, pH 7.5, 1 mg/ml BSA, 1 mM EDTA and 200 μM [^14C]18:1-CoA and 200 μM sn-1-18:1 lysoPA.

Structure (SMILES) | IC50
COc1ccc(Cl)cc1-c1cc(Nc2ccc(Br)cc2)nc(C)n1 [Example 39, [6-(5-Chloro-2-methoxy-phenyl)-2-methyl-pyrimidin-4-yl]-(4-bromo-phenyl)-amine] | 180 nM
CCc1ccc(Cl)cc1-c1cc(Nc2ccc(C(F)(F)F)cc2)nc(N)n1 [Example 164, 6-(5-Chloro-2-ethyl-phenyl)-N*4*-(4-trifluoromethyl-phenyl)-pyrimidine-2,4-diamine] | 670 nM
COc1ccc(Br)cc1-c1cc(Nc2ccc(C(F)(F)F)cc2)nc(N)n1 [Example 150, 6-(5-Bromo-2-methoxy-phenyl)-N*4*-(4-trifluoromethyl-phenyl)-pyrimidine-2,4-diamine] | 100 nM
Cc1ccc(Cl)cc1-c1cc(Nc2ccc3cn[nH]c3c2)nc(N)n1 [Example 31, 6-(5-Chloro-2-methyl-phenyl)-N*4*-(1H-indazol-6-yl)-pyrimidine-2,4-diamine] | 32 nM
CCOc1ccc(Br)cc1-c1cc(Nc2ccc(C(=O)OC)cc2)nc(N)n1 [Example 61, 4-[2-Amino-6-(5-bromo-2-ethoxy-phenyl)-pyrimidin-4-ylamino]-benzoic acid methyl ester] | 350 nM
COc1ccccc1COc1ccc(Br)cc1-c1cc(Nc2ccc(Cl)cc2)nc(N)n1 [Example 182, 6-[5-Bromo-2-(2-methoxy-benzyloxy)-phenyl]-N*4*-(4-chloro-phenyl)-pyrimidine-2,4-diamine] | 4 nM
CCOc1ccc(Br)cc1-c1cc(Nc2ccc(CCO)cc2)ncn1 [Example 191, 2-{4-[6-(5-Bromo-2-ethoxy-phenyl)-pyrimidin-4-ylamino]-phenyl}-ethanol] | 20 nM
Cc1nc(Nc2ccc3cn[nH]c3c2)cc(-c2cc(Cl)ccc2C)n1 [Example 43, [6-(5-Chloro-2-methyl-phenyl)-2-methyl-pyrimidin-4-yl]-(1H-indazol-6-yl)-amine] | 17 nM
COc1ccc(Br)cc1-c1cc(Nc2ccc(C#N)cc2)nc(N)n1 [Example 160, 4-[2-Amino-6-(5-bromo-2-methoxy-phenyl)-pyrimidin4-ylamino]-benzonitrile] | 38 nM
CCOc1ccc(Cl)cc1-c1cc(Nc2ccc(COC(=O)CN)cc2)nc(N)n1 [Example 64, Amino acetic acid-4-[2-amino-6-(5-chloro-2-ethoxy-phenyl)-pyrimidin-4-ylamino]-benzyl ester] | 1500 nM
Cc1ccc(Br)cc1-c1cc(Nc2ccc(C(F)(F)F)cc2)nc(N)n1 [Example 82, 6-(S-Bromo-2-methyl-phenyl)-N*4*-(4-trifluoromethyl-phenyl)-pyrimidine-2,4-diamine] | 100 nM
CNC(=O)c1cc(Nc2cc(-c3cc(Br)ccc3C)nc(N)n2)ccc1Cl [Example 75, 5-[2-Amino-6-(5-bromo-2-methyl-phenyl)-pyrimidin-4-ylamino]-2-chloro-N-methyl-benzamide] | 180 nM
CSc1cccc(Nc2cc(-c3cc(Cl)ccc3C)nc(N)n2)c1 [Example 111, 6-(5-Chloro-2-methyl-phenyl)-N*4*-(3-methylsulfanyl-phenyl)-pyrimidine-2,4-diamine] | 280 nM
CCOc1ccc(Br)cc1-c1cc(Nc2ccc(C(C)OC)cc2)nc(N)n1 (centres unmarked) [Example 137, 6-(5-Bromo-2-ethoxy-phenyl)-N*4*-[4-(1-methoxy-ethyl)-phenyl]-pyrimidin-2,4-diamine] | 260 nM
CCOc1ccc(Br)cc1-c1cc(Nc2ccc(Cl)cc2)ncn1 [Example 190, [6-(5-Bromo-2-ethoxy-phenyl)-pyrimidin4-yl]-(4-chloro-phenyl)-amine] | 30 nM
Cc1ccc(C)c(-c2cc(Nc3ccc(Cl)cc3)nc(N)n2)c1 [Example 73, N*4*-(4-Chloro-phenyl)-6-(2,5-dimethyl-phenyl)-pyrimidine-2,4-diamine] | 160 nM
CCOc1ccc(I)cc1-c1cc(Nc2ccc(N=[N+]=[N-])cc2)nc(N)n1 [Example 140, N*4*-{4-Azido-phenyl)-6-(2-ethoxy-5-iodo-phenyl)-pyrimidine-2,4-diamine] | 100 nM
CCOc1ccc(Br)cc1-c1cc(Nc2ccc(C(C)=NO)cc2)nc(N)n1 [Example 130, 1-{4-[2-Amino-6-(5-bromo-2-ethoxy-phenyl)-pyrimidin4-ylamino]-phenyl}-ethanone-oxime] | 84 nM
CCOc1ccc(Br)cc1-c1cc(Nc2ccc(C(F)(F)F)cc2)nc(N)n1 [Example 60, 6-(5-Bromo-2-ethoxy-phenyl)-N*4*-(4-trifuoromethyl-phenyl)-pyrimidin-2,4-diamine] | 60 nM
Cc1ccc(Br)cc1-c1cc(Nc2ccc(Cl)cc2)nc(N)n1 [Example 84, 6-(5-Bromo-2-methyl-phenyl)-N*4*-(4-chloro-phenyl)-pyrimidine-2,4-diamine] | 31 nM
CCc1ccc(Cl)cc1-c1cc(Nc2ccc(Br)cc2)nc(N)n1 [Example 163, N*4*-(4-Bromo-phenyl)-6-(5-chloro-2-ethyl-phenyl)-pyrimidine-2,4-diamine] | 310 nM
COc1ccc(Cl)cc1-c1nc(N)nc(Nc2ccc3cn[nH]c3c2)c1Br [Example 52, 5-Bromo-6-(5-chloro-2-methoxy-phenyl)-N*4*-(1H-indazol-6-yl)-pyrimidine-2,4-diamine] | 500 nM
Cc1ccc(Cl)cc1-c1cc(Nc2ccc(Cl)cc2)nc(N)n1 [Example 27, 6-(5-Chloro-2-methyl-phenyl)-N*4*-(4-chloro-phenyl)-pyrimidine-2,4-diamine] | 28 nM
CCOc1ccc(Cl)cc1-c1cc(Nc2ccc(C(F)(F)F)cc2)nc(N)n1 [Example 56, 6-(5-Chloro-2-ethoxy-phenyl)-N*4*-(4-trifluoromethyl-phenyl)-pyrimidine-2,4-diamine] | 70 nM
COc1ccc(C)c(-c2cc(Nc3ccc(Cl)cc3)nc(N)n2)c1 [Example 71, N*4*-(4-Chloro-phenyl)-6-(5-methoxy-2-methyl-phenyl)-pyrimidine-2,4-diamine] | 210 nM
Nc1nc(Nc2ccc(C(F)(F)F)cc2)cc(-c2cc(Cl)ccc2Cl)n1 [Example 18, 6-(2,5-Dichloro-phenyl)-N*4*-(4-trifuoromethyl-phenyl)-pyrimidine-2,4-diamine] | 82 nM
Nc1nc(Nc2ccc(Cl)cc2)cc(-c2cc(Cl)ccc2OCc2ccccc2)n1 [Example 155, 6-(2-Benzyloxy-5-chloro-phenyl)-N*4*-(4-chloro-phenyl)-pyrimidine-2,4-diamine] | 4 nM
CCOc1ccc(Br)cc1-c1cc(Nc2ccc(CO)cc2)nc(N)n1 [Example 62, {4-[2-Amino-6-(5-bromo-2-ethoxy-phenyl)-pyrimidin4-ylamino]-phenyl}-methanol] | 80 nM
COc1ccc(Cl)cc1-c1cc(Nc2ccc(N)cc2)nc(N)n1 [Example 12, N*4*-(4-Amino-phenyl)-6-(5-chloro-2-methoxy-phenyl)-pyrimidine-2,4-diamine] | 95 nM
